Earlier results on 47 compounds are cited in the CATMoS acute toxicity set (Mansouri et al. 2021).

As a reminder, the LD50 is the dose expected to kill half of the subjects tested.

A short description of the data set: rat acute oral toxicity. As to conditions: in vivo.
Regarding `CNC(=O)Oc1ccccc1C1OCC(C)(C)O1` (configuration not stated), the LD50 was 110 mg/kg. On to `CN(c1ccc(F)cc1F)c1c([N+](=O)[O-])cc([N+](=O)[O-])cc1C(F)(F)F`, for which the LD50 is 250 mg/kg. Take `COC(=O)c1ccccc1N=NN(C)C`: the LD50 was 13 mg/kg. In the case of `O=[N+]([O-])c1ccc(O)c(CNCCO)c1`, the LD50 was 23 mg/kg. In the case of `CC1=CCC(C(C)C)C=C1` (configuration not stated), the LD50 is 5700 mg/kg. For `CCCCC(CC)OCCOCCO` (configuration not stated), the LD50 is 2940 mg/kg. Consider `COC(=O)c1ccc2nc(C(F)(F)F)[nH]c2c1`, for which the LD50 is 22.3 mg/kg.

With `CCN(CC)c1nc(NC(C)C)nc(OC)n1`, the LD50 was 885 mg/kg. As for `CCCCCCCCCCCCCCCCCC1=NCCN1CCO`, the LD50 was 3800 mg/kg. As to `O=C(CCCN1CCC2(CCCCC2)CC1)c1ccc(F)cc1`, the LD50 was 200 mg/kg. For `CCC1(C)Oc2cccc(OC(=O)NC)c2O1` (configuration not stated), the LD50 was 25 mg/kg.

`Nc1ccc(C(=O)O)cc1`: the LD50 was 8000 mg/kg.

`CCC(=O)O[C@H]1[C@H](O[C@@H]2[C@@H](C)[C@H](O[C@H]3C[C@@](C)(OC)[C@@H](O)[C@H](C)O3)[C@@H](C)C(=O)O[C@H](CC)[C@@](C)(O)[C@H](O)[C@@H](C)C(=O)[C@H](C)C[C@@]2(C)O)O[C@H](C)C[C@@H]1N(C)C`: the LD50 is 1450 mg/kg. Take `C=C(Cl)C(OC(C)=O)OC(C)=O`: the LD50 was 320 mg/kg.

As to `COc1ccc2c(c1)OC(C)(C)[C@H](c1ccccc1)[C@H]2c1ccc(OCCN2CCCC2)cc1` (racemic), the LD50 was 800 mg/kg. Take `CCCCCc1cc(O)c2c(c1)OC(C)(C)[C@@H]1CC=C(C)C[C@@H]21`: the LD50 is 860 mg/kg. In the case of `CC(C=O)CCC(C)(O)C=O` (configuration not stated), the LD50 was 5890 mg/kg. `Cc1cccc(C(C)c2ccccc2)c1C` (configuration not stated): the LD50 is 2050 mg/kg. As for `O=C(OC1CCCCC1)C(Oc1ccc(Cl)cc1)Oc1ccc(Cl)cc1`, the LD50 was 900 mg/kg. With `COP(=S)(OC)SCC(=O)O`, the LD50 was 2500 mg/kg.

For the compound `CCCCCCOC(=O)CC(C(=O)OCCCCCC)S(=O)(=O)O` (configuration not stated), the LD50 was 1750 mg/kg. For the compound `CC(=O)OCCN(CCC#N)c1ccccc1`, the 50% lethal dose (LD50) is 2070 mg/kg. On to `CC(NCCNC(C)c1ccccc1)c1ccccc1` (configuration not stated), for which the LD50 is 1290 mg/kg.

Consider `CC(C)Cc1ccc2ccccc2n1`, for which the LD50 was 1020 mg/kg. Regarding `S=c1[nH]n(-c2ccccc2)c(=S)s1`, the LD50 was 763 mg/kg. For `COC(=O)C=CC(=O)OC`, the LD50 is 2240 mg/kg. As to `CCc1ccc(Oc2ccc(C)cc2CC(=O)O)c(Cl)c1`, the LD50 is 2850 mg/kg. For the compound `O=P1(NCCCl)OCCCN1CCCl` (configuration not stated), the LD50 is 143 mg/kg.

Regarding `C=CC1OCC2(CO1)COC(C=C)OC2` (configuration not stated), the LD50 is 3250 mg/kg.

Consider `Cc1ncc(CSSCc2cnc(C)c(O)c2CCl)c(CCl)c1O`, for which the LD50 is 4300 mg/kg. For the compound `N#Cc1cc([N+](=O)[O-])ccc1Cl`, the LD50 is 3200 mg/kg. Consider `CC(N)C12CC3CC(CC(C3)C1)C2` (configuration not stated), for which the LD50 was 640 mg/kg. For `CC(=O)Oc1ccc(C2(c3ccc(OC(C)=O)cc3)Oc3ccccc3NC2=O)cc1`, the median lethal dose (LD50) is 8000 mg/kg. On to `CCOP(=S)(OCC)SCSCc1ccccc1`, for which the LD50 was 6 mg/kg.

As to `Cc1ccc(C)c(O)c1`, the LD50 is 444 mg/kg. Take `CCc1cccc2c3c([nH]c12)C(CC)(CC(=O)O)OCC3` (configuration not stated): the LD50 is 94 mg/kg. Regarding `Cc1cccc(C#N)c1`, the LD50 is 3000 mg/kg. On to `CN(C)N=O`, for which the LD50 was 37 mg/kg. With `CN1C(=O)CCc2cc(C(=O)CCN3CCN(c4ccccc4)CC3)ccc21`, the LD50 was 500 mg/kg. As to `COP(=S)(OC)SC(CBr)N1C(=O)c2ccccc2C1=O` (configuration not stated), the LD50 is 188 mg/kg. For `Nc1ccccc1-c1ccccc1`, the LD50 was 2340 mg/kg. For `CCCC(C)OP(=S)(OC)OC` (configuration not stated), the LD50 was 311 mg/kg.

In the case of `COC(=NC#N)OC`, the LD50 is 1500 mg/kg. On to `Clc1ccc(C(Cn2ccnc2)OCc2c(Cl)cccc2Cl)c(Cl)c1` (configuration not stated), for which the LD50 is 5600 mg/kg. For `CCCCCOC(CBr)c1ccc(C2CCCCC2)cc1` (configuration not stated), the LD50 is 250 mg/kg. As for `CC1(C)C(C=C(Br)Br)C1C(=O)OC(C#N)c1cccc(Oc2ccccc2)c1` (configuration not stated), the median lethal dose (LD50) was 80 mg/kg. Turning to `CN1CN(CC(=O)O)CSC1=S`, the LD50 was 1000 mg/kg.
